Data on 6 molecules can be found in article PMC12143348, “Rapid and reversible fluorescent probe enables repeated snapshot imaging of AMPA receptors during synaptic plasticity” (Science Advances, 2025).

Experiment [1] concerns cultured hippocampal neurons. Put plainly: cLTP stimulation and quantification of cell-surface AMPARs in spines of cultured hippocampal neurons. Conditions: [AP5] = 50 µM, [MK-801] = 20 µM, [KN93] = 5 µM, [BFA] = 25 µM; 200 µM glycine 15 min. It counts as cell-based, mouse. As to the method: After washing the cells with Hepes-based ACSF, 100 nM PFQX1(AF488) was added to the dish. The cells were scanned to obtain “basal state” images. Then, the cells were washed three times with cLTP stimulation buffer (Hepes-based ACSF except for MgCl2 supplemented with 20 μM bicuculline and 1 μM strychnine) to remove PFQX1(AF488). cLTP was induced by 200 μM glycine in cLTP stimulation buffer for 15 min at room temperature. After washing the cells with cLTP incubation buffer (Hepes-based ACSF supplemented with 20 μM bicuculline and 1 μM strychnine), the cells were incubated for 60 min at room temperature. Last, 100 nM PFQX1(AF488) was added to the dish, and images were scanned to obtain “after cLTP” images. Inhibitors (50 μM AP5 and 20 μM MK-801 for NMDARs and 5 μM KN93 for CaMKII and 25 μM […] for exocytosis) were added to cLTP stimulation buffer and cLTP incubation buffer. To quantify the fluorescence intensity in spines, the average signal intensity of ROIs set on dendritic spines or dendritic shafts was calculated by ZEN blue software after subtracting background fluorescence. The fold change value was calculated using the following equation: (fluorescence intensity of “after cLTP” images)/(fluorescence intensity of “basal state” images).
To label endogenous AMPARs, 10 μM CAM2(TCO) in the culture medium was gently added to the hippocampal neurons on a glass-bottom dish to a final concentration of 2 μM CAM2(TCO). The cells were incubated for 2 hours at 37°C. In the second step, the culture medium was removed, and the cells were treated with 100 nM Tz(ST647) for 5 min in Hepes-based ACSF at room temperature. To quench excess Tz(ST647), 1 μM TCO-OH in Hepes-based ACSF was added. Then, the cells were treated with 100 nM PFQX1(AF488). Imaging was performed with confocal microscopy.

Experiment [2] deals with native AMPARs. Put plainly: Concentration-dependent binding of PFQX1(AF488) to AMPARs in primary cultured hippocampal neurons. On the set-up: species or system mouse. Conditions: 10 µM NBQX added after 100 nM PFQX1(AF488); cultured hippocampal neurons. On the procedure: We modified the Banker’s culture method of hippocampal neurons ([59]). Glass-bottom dishes (14 mm φ, Matsunami) were coated with poly-D-lysine (Sigma-Aldrich) and washed three times with sterile dH2O. Hippocampi from 16-day-old ICR mouse embryos were aseptically dissected and digested with 0.25% (w/v) trypsin (Nacalai Tesque) for 20 min at 37°C. The cells were resuspended in Neurobasal Plus medium supplemented with 10% FBS, 1 mM GlutaMAX I (Invitrogen), penicillin (100 U/ml), and streptomycin (100 μg/ml) and filtered by Cell Strainer (100 μm, Falcon) followed by centrifugation at 1000 rpm for 5 min. The cells were resuspended in Neurobasal Plus medium supplemented with 2% of B-27 Plus Supplement, 1 mM GlutaMAX I (Invitrogen), penicillin (100 U/ml), and streptomycin (100 μg/ml) and plated at a density of 2 × 10^4 cells on glass-bottom dishes. Precultured cortical astrocytes on glass coverslips (13 mm φ) were transferred to the dishes so that astrocytes were faced to neurons. The cultures were maintained at 37°C in a 95% air and 5% CO2 humidified incubator. The culture medium was replaced every 7 days, and the neurons were used at 16 to 18 days in vitro (DIV).
Calcein Red AM (50 nM; AAT Bioquest) was added to the cultured neurons for 30 min at 37°C to visualize the intracellular region. The cells were washed with Hepes-based ACSF [25 mM Hepes (pH 7.4), 140 mM NaCl, 5 mM KCl, 1.3 mM CaCl2, 2 mM MgCl2, and 33 mM glucose], and 100 nM PFQX1(AF488) in Hepes-based ACSF was added to the dish.
For evaluating the concentration dependency of PFQX1(AF488), the cells were treated with 1 nM PFQX1(AF488). Then, PFQX1(AF488) in Hepes-based ACSF was added stepwise to the dish to a final concentration of 3, 10, 30, 100, 300, and 1000 nM. To quantify the concentration dependency after cLTP, the procedure described above was conducted after cLTP stimulation as described in the section “cLTP and quantification of cell-surface AMPARs.” The average intensity of ROIs set on spines was calculated by ZEN blue software after subtracting background fluorescence. The intensity was fitted with KaleidaGraph to calculate the equilibrium constant value using the following equation: a + (b − a)/(1 + (x/c)^d). The equilibrium constant is regarded as the Kd in this study.

In experiment [3] the test system is AMPARs. As to the kind of experiment: Staining of AMPARs in acute cerebellar slices. The format is binding, mouse. Conditions: 10 µM NBQX with 30 nM PFQX1(AF488), 5 min; molecular layer. On the procedure:
following secondary antibodies were used: donkey anti-mouse CF568 conjugated (Sigma, […]
1:1,000) and anti-rabbit Alexa Fluor Plus 488 conjugated (Invitrogen, A32731, 1,000).
Imaging was performed with confocal microscopy.
With two-step labeling, the cells were labeled as described in “Two -step labeling and PFQX1(AF488)staining in cultured neurons,” followed by immunostaining.
In fig. S9A, the cells were incubated with 500 nM CellTracker Red CMPTX (Invitrogen) instead of Calcein Red AM for 30 min at 37 °C to visualize the intracellular region before the immunostaining.
Preparation and staining of cerebellar acute brain slices
C57BL/6J mice (3 weeks) were anesthetized with isoflurane, and their brains were isolated and immediately transferred to ice-cold cutting solution buffer (120 mM Choline Chloride, 3 mM KCl, 8 mM MgCl2, 1.25 mM NaH2PO4, 28 mM NaHCO3, 22 mM Glucose, and 0.5 mM Sodium ascorbate) gassed with 5% CO2 and 95% O2 and incubated for 5 min. Sagittal cerebellar slices were cut with a microslicer (Neo-linear slicer NLS-MT; DOSAKA EM) in cutting solution buffer and then incubated in ACSF […]
NaHCO3, 10 mM Glucose) gassed with 5% CO 2 and 95% O 2 at 37 °C.
Acute slices were transferred to glass bottom dishes and treated with 30 nM PFQX1(AF488) in HEPES-based ACSF for 5 min. […]
Scale bars, 500 µm. (F) Quantification of probe intensity in Ε. […]

Experiment [4] relates to GluA1–4. As to the kind of experiment: Fluorescence Ca2+ assay, inhibition of glutamate-induced response in HEK293T cells transfected with GluA1-4. Conditions: 30 µM glutamate-induced Ca2+ response; GluA1–4 in HEK293T cells. It counts as cell-based, mouse. As to the method: HEK293T cells transfected with Ca2+-permeable GluA1–4 (GluA1 flip(Q), GluA2flip(Q), GluA3flip(Q) (Y454A/R461G), and GluA4flip(Q)) or GluK2(Q) were seeded on the 96 well plate. The cells were loaded with 5 µM Cal-520 AM (AAT Bioquest) in the culture medium for 2 h and washed with HBS using AquaMax 2000 (Molecular devices). The imaging experiment was carried out in an HBS buffer. For the fluorescence Ca2+ imaging, PFQX-amine was pretreated to the cells for 3 min followed by the addition of 30 µM glutamate with 100 µM cyclothiazide as a desensitization inhibitor for AMPARs and 100 µM kainic acid with 100 µM BPAM344 as a desensitization inhibitor for kainate receptors.
Fluorescent intensity of Cal-520 was obtained using FlexStation3 (Molecular devices), and analyzed with SoftMax Pro 7 (Molecular devices). ΔRFU was defined as the difference between the maximum intensity value after adding glutamate and the average intensity value before adding the glutamate. ΔRFU was fitted with KaleidaGraph.
Immunostaining of cultured neurons
The cultured hippocampal neurons were fixed with cold methanol for 5 min and washed with PBS three times. Fixed cells were incubated with Blocking One Histo (Nacalai Tesque) for 10 min. The cells were washed with PBS containing 0.05% Tween 20 (PBS-T) once and incubated with primary antibodies in PBS-T containing 5% Blocking One Histo at room temperature for 2 h. […]

In experiment [5] the target is AMPARs. Details: method as in earlier work. Conditions: read-out: inhibition constant (Ki) for AMPARs; cited from earlier work.
Experiment [6] concerns Halo-tag-fused GluA2 in HEK293T cells. As to the kind of experiment: Exocytosis assay of AMPARs in HEK293T cells (Halo-tag pulse labeling). The format is cell-based. Conditions: 25 µM, 2 h at 37 °C. On the procedure:
Exocytosis assay of AMPARs in HEK293T cells
HEK293T cells expressing Halo-tag-GluA2 flip(Q)-3’UTR were treated with Halo-tag ligand-Alexa488 (HTL(AF488)) for 30 min at room temperature as a first pulse. After washing with DMEM three times, the cells were incubated with 25 µM brefeldin A or DMSO for 2 h at 37 °C in a 95% air and 5% CO2 humidified incubator. Then, HTL(AF647) was added to the dishes and incubated for 15 min at room temperature as a second pulse to visualize spontaneous exocytosed AMPARs. Labeled cells were fixed with 4% PFA for 15 min. The fluorescent images were obtained using confocal […]
General materials and methods for organic synthesis
All chemical reagents and solvents were purchased from commercial sources (FUJIFILM Wako pure chemical, TCI chemical, Sigma-Aldrich, Click Chemistry Tools, BroadPharm) and were used without further purification. Thin-layer chromatography (TLC) was performed on silica gel 60 F254 precoated aluminum sheets (Merck).
Chromatographic purification was performed by flash column chromatography on silica gel 60 N (neutral, 40–50 µm, Kanto Chemical). 1H-NMR spectra were recorded in deuterated solvents on an Avance III HD 300 MHz or 500 MHz (Bruker). […] High-resolution mass spectra were measured on a Compact (Bruker) equipped with electron spray ionization (ESI). […]

“Also recorded” adds a separate entry of the source.

Regarding `NC(CCCP(=O)(O)O)C(=O)O` (stereo not drawn) [AP5], the “effect on the increase in PFQX1(AF488) fluorescence in spines after cLTP stimulation” value (from here on “effect on the increase”) in experiment [1] was “suppressed the increase in PFQX1(AF488) fluorescence; also recorded: increase in both PFQX1(AF488) and ST647 fluorescence was not observed”.

Consider `COc1ccc(S(=O)(=O)N(CCO)c2ccccc2CN(C)C/C=C/c2ccc(Cl)cc2)cc1` [KN93], for which, in experiment [1], the “effect on the increase” value is on record as “suppressed the increase in PFQX1(AF488) fluorescence”.

`C[C@]12N[C@H](Cc3ccccc31)c1ccccc12` [MK-801]: the “effect on the increase” value in experiment [1] is reported as “suppressed the increase in PFQX1(AF488) fluorescence”.

With `NS(=O)(=O)c1cccc2c1c([N+](=O)[O-])cc1[nH]c(=O)c(=O)[nH]c12` [NBQX, 2,3-dioxo-6-nitro-1,2,3,4-tetrahydrobenzo(f)quinoxaline-7-sulfonamide, reference compound], the “competitive inhibition of PFQX1(AF488) binding in neurons” value in experiment [2] is on record as “fluorescent signals from the puncta disappeared”. The “competitive inhibition of PFQX1(AF488) binding in cerebellar slices” value in experiment [3] is listed as “significantly weakened”.

Consider `O=c1[nH]c2cc(-n3cccc3)c(C(F)(F)F)cc2[nH]c1=O` [PFQX, 6-pyrrolyl-7-trifluoromethyl-quinoxaline-2,3-dione], for which the “antagonism of AMPAR subunits” value in experiment [4] is on record as “antagonized AMPARs in a subunit-nonspecific manner”. Also, the inhibition constant (Ki) – broadly, a measure of affinity in units of concentration, obtained from inhibition or displacement – in experiment [5] is 0.17 µM.

`C[C@H]1CCC/C=C/[C@@H]2C[C@H](O)C[C@H]2[C@H](O)/C=C/C(=O)O1` [brefeldin A]: the “effect on spontaneous exocytosis of Halo-tag-fused AMPAR to the cell surface” value in experiment [6] is “markedly suppressed the spontaneous exocytosis”. For the same molecule, the “effect on the increase” value in experiment [1] is recorded as “inhibited the fluorescent increase in PFQX1(AF488)”.
